Data on six compounds can be found in ChEMBL document CHEMBL4028801, “A multifactorial approach to hepatobiliary transporter assessment enables improved therapeutic compound development” (Toxicol Sci, 2013).

Data set [1] addresses ATP-binding cassette sub-family C member 2 (Homo sapiens, UniProt Q92887). Nature of the data set: Inhibition of human MRP2 overexpressed in Sf9 cell membrane vesicles assessed as uptake of [3H]-estradiol-17beta-D-glucuronide in presence of ATP and GSH measured after 20 mins by membrane vesicle transport assay.
Data set [2] is described as follows: Drug concentration at steady state in human at 43 to 130 mg, po QD after 24 hrs. In kind it is ADME, organism-based. As to conditions: in vivo, read-out: Css.
Data set [3] has as its target T1, ATP-binding cassette sub-family C member 4 (Homo sapiens, UniProt O15439).
T1 sequence (O15439 whole entry): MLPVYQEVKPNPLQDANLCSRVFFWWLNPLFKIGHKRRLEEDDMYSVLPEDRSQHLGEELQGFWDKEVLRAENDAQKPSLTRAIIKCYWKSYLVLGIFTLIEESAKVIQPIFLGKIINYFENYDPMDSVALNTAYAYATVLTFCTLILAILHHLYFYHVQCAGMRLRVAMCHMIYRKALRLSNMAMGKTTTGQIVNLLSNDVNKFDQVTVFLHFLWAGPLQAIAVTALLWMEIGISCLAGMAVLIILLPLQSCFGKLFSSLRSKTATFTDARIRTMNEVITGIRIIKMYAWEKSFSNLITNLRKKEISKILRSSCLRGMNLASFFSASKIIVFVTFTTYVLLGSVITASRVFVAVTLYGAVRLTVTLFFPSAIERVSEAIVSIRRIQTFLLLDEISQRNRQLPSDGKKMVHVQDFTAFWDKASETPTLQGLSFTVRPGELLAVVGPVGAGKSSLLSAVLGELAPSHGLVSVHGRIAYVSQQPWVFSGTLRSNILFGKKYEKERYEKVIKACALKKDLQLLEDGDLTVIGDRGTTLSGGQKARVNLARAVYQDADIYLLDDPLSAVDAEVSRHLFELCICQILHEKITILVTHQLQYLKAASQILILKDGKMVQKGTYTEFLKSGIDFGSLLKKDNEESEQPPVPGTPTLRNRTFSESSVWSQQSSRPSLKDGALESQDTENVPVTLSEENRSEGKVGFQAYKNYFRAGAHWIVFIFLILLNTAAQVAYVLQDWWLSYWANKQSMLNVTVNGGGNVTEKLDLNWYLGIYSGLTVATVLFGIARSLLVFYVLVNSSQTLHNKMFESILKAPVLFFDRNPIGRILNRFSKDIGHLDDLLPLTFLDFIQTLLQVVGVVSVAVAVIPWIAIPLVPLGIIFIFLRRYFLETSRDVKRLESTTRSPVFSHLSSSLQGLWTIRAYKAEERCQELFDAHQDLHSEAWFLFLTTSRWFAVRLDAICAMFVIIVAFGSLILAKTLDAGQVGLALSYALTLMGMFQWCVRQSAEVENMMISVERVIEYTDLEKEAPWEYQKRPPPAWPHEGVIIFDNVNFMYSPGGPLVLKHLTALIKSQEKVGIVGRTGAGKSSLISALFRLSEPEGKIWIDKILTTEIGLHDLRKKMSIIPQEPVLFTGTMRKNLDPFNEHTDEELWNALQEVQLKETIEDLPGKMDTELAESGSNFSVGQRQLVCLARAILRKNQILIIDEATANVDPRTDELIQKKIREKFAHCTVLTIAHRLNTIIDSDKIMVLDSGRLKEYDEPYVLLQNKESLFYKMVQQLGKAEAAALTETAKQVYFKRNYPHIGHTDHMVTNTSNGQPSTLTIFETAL
In words: Inhibition of human MRP4 overexpressed in Sf9 cell membrane vesicles assessed as uptake of [3H]-estradiol-17beta-D-glucuronide in presence of ATP and GSH measured after 20 mins by membrane vesicle transport assay. The format is ADME, cell-based.

The next data set is described as follows: clinical. To be noted: human, in vivo, po.
For data set [4], the target named is ATP-binding cassette sub-family C member 3 (Homo sapiens, UniProt O15438). In words: Inhibition of human MRP3 overexpressed in Sf9 insect cell membrane vesicles assessed as uptake of [3H]-estradiol-17beta-D-glucuronide in presence of ATP and GSH measured after 10 mins by membrane vesicle transport assay. In kind it is ADME, cell-based.
ATP-binding cassette sub-family C member 3, sequence (O15438 whole entry): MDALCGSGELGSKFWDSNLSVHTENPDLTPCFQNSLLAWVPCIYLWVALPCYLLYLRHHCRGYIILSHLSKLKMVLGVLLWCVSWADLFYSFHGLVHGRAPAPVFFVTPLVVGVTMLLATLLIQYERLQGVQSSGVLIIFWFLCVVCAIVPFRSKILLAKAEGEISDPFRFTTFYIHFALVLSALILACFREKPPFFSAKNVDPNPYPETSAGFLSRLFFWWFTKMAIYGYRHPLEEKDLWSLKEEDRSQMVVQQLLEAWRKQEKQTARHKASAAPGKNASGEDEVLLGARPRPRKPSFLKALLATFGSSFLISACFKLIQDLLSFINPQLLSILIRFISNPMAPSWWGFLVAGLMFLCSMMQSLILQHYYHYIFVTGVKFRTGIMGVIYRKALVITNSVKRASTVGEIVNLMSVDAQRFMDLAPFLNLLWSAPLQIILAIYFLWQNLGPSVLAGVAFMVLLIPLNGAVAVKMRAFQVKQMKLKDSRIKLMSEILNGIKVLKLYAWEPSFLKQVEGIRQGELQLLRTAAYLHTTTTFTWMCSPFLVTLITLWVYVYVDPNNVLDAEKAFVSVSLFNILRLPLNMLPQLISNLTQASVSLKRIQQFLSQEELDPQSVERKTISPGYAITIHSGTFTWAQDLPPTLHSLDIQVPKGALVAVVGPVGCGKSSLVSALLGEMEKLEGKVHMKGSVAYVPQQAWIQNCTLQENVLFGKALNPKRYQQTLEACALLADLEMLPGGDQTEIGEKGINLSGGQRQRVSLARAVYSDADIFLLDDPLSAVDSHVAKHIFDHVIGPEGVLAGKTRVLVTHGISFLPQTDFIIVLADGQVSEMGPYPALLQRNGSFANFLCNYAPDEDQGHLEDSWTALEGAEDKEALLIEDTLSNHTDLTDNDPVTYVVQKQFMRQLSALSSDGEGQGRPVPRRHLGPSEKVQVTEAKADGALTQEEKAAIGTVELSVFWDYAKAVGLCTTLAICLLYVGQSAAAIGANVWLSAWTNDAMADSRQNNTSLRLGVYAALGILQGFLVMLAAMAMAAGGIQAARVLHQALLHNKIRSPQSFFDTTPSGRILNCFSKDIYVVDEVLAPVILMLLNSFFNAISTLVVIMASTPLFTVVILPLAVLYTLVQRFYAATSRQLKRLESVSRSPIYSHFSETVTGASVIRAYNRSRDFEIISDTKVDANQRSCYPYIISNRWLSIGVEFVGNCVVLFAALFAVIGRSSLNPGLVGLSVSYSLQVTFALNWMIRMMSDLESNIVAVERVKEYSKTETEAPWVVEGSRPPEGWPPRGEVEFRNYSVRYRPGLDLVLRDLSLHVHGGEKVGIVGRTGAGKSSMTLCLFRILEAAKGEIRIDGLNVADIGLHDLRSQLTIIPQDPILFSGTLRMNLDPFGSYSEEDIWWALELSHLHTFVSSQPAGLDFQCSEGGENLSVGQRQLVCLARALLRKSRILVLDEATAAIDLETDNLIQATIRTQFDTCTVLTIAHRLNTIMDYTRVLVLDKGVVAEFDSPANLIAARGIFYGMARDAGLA
The nature of data set [5]: Drug concentration at steady state in human at 600 mg, po QD after 24 hrs. In kind it is ADME, organism-based. To be noted: in vivo, read-out: Css.
The target in a further data set is Bile salt export pump (Homo sapiens, UniProt O95342). In words: Inhibition of human BSEP overexpressed in Sf9 cell membrane vesicles assessed as uptake of [3H]-taurocholate in presence of ATP measured after 15 to 20 mins by membrane vesicle transport assay. In kind it is ADME, cell-based.
Bile salt export pump, sequence (O95342 whole entry): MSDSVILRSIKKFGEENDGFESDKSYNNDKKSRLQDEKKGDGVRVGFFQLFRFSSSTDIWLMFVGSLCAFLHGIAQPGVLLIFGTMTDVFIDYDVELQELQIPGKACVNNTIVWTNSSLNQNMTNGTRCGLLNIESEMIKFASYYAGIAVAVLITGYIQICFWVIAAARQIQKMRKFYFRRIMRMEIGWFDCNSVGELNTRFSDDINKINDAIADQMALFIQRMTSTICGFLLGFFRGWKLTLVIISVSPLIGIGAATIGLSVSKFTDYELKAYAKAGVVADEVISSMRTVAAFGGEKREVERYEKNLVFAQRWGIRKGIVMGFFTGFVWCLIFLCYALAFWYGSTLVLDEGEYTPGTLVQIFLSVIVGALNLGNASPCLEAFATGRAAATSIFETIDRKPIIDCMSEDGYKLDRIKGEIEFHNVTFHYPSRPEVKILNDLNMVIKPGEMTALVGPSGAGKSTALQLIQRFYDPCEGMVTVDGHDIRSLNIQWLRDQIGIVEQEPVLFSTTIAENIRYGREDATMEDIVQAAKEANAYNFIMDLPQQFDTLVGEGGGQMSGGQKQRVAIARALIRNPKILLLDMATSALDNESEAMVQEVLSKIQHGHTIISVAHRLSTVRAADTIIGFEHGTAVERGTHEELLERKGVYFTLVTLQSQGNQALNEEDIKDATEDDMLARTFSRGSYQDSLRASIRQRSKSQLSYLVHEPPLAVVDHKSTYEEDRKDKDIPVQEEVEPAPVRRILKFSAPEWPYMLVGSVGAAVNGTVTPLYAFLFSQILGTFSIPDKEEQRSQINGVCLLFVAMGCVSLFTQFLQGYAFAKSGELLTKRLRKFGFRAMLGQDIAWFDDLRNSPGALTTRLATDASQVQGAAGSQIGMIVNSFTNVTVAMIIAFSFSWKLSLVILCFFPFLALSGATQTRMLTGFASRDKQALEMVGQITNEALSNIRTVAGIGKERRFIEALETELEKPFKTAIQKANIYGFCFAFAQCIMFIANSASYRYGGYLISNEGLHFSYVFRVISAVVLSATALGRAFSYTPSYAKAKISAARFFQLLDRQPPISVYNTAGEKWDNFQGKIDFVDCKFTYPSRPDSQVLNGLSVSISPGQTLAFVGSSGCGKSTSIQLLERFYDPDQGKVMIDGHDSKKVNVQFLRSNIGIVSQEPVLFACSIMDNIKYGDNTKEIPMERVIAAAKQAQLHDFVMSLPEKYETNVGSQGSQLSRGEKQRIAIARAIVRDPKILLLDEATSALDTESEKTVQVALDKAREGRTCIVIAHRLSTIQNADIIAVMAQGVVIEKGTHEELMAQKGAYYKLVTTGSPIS
The nature of data set [6]: Ratio of drug concentration at steady state in human at 600 mg, po QD after 24 hrs to IC50 for human BSEP overexpressed in Sf9 insect cells. In kind it is ADME, organism-based. To be noted: in vivo.
Data set [7] can be described thus: AUC in human at 600 mg, po QD after 24 hrs. In kind it is ADME, organism-based. Also noted: time < 24 hr, dose 600 mg, route oral. As to conditions: in vivo.
The subject of the next data set is Homo sapiens. Nature of the data set: Drug concentration at steady state in human at 135 to 175 mg/m2, iv administered as infusion for 3 or 24 hrs measured after 1 hr. The format is ADME, organism-based. As to conditions: in vivo.
Data set [8] can be described thus: AUC in human at 135 to 175 mg/m2, iv administered as infusion for 3 or 24 hrs measured after 1 hr. The format is ADME, organism-based. Also noted: time < 1 hr, route intravenous. As to conditions: in vivo.
Data set [9] in a line: Drug concentration at steady state in human at 20 to 40 mg/kg, po QD after 24 hrs. In kind it is ADME, organism-based. As to conditions: in vivo, read-out: Css.
Data set [10] in a line: AUC in human at 20 to 40 mg/kg, po QD after 24 hrs. In kind it is ADME, organism-based. To be noted: in vivo.
Data set [11] can be described thus: Ratio of drug concentration at steady state in human at 20 to 40 mg/kg, po QD after 24 hrs to IC50 for human BSEP overexpressed in Sf9 insect cells. In kind it is ADME, organism-based. As to conditions: in vivo.
Data set [12] in a line: Ratio of drug concentration at steady state in human at 20 to 40 mg/kg, po QD after 24 hrs to IC50 for human MRP4 overexpressed in Sf9 insect cells. In kind it is ADME, organism-based. As to conditions: in vivo.
Data set [13] in a line: Drug concentration at steady state in human at 75 to 600 mg, iv QD after 24 hrs. In kind it is ADME, organism-based. To be noted: in vivo, read-out: Css.
The nature of data set [14]: AUC in human at 75 to 600 mg, iv QD after 24 hrs. In kind it is ADME, organism-based. To be noted: in vivo.
Data set [15] in a line: Ratio of drug concentration at steady state in human at 100 to 200 mg, po TID after 8 hrs to IC50 for human MRP3 overexpressed in Sf9 insect cells. In kind it is ADME, organism-based. To be noted: in vivo.
Data set [16] can be described thus: AUC in human at 100 to 200 mg, po TID after 8 hrs. In kind it is ADME, organism-based. To be noted: in vivo.
A short description of data set [17]: Drug concentration at steady state in human at 100 to 200 mg, po TID after 8 hrs. The format is ADME, organism-based. As to conditions: in vivo, read-out: Css.
Data set [18] in a line: Ratio of drug concentration at steady state in human at 100 to 200 mg, po TID after 8 hrs to IC50 for human MRP4 overexpressed in Sf9 insect cells. The format is ADME, organism-based. To be noted: in vivo.
The nature of data set [19]: Ratio of drug concentration at steady state in human at 100 to 200 mg, po TID after 8 hrs to IC50 for human BSEP overexpressed in Sf9 insect cells. The format is ADME, organism-based. As to conditions: in vivo.

pIC50: −log10 of the molar value. Some results are limits rather than exact numbers.

ATP-binding cassette sub-family C member 2, sequence (Q92887 whole entry): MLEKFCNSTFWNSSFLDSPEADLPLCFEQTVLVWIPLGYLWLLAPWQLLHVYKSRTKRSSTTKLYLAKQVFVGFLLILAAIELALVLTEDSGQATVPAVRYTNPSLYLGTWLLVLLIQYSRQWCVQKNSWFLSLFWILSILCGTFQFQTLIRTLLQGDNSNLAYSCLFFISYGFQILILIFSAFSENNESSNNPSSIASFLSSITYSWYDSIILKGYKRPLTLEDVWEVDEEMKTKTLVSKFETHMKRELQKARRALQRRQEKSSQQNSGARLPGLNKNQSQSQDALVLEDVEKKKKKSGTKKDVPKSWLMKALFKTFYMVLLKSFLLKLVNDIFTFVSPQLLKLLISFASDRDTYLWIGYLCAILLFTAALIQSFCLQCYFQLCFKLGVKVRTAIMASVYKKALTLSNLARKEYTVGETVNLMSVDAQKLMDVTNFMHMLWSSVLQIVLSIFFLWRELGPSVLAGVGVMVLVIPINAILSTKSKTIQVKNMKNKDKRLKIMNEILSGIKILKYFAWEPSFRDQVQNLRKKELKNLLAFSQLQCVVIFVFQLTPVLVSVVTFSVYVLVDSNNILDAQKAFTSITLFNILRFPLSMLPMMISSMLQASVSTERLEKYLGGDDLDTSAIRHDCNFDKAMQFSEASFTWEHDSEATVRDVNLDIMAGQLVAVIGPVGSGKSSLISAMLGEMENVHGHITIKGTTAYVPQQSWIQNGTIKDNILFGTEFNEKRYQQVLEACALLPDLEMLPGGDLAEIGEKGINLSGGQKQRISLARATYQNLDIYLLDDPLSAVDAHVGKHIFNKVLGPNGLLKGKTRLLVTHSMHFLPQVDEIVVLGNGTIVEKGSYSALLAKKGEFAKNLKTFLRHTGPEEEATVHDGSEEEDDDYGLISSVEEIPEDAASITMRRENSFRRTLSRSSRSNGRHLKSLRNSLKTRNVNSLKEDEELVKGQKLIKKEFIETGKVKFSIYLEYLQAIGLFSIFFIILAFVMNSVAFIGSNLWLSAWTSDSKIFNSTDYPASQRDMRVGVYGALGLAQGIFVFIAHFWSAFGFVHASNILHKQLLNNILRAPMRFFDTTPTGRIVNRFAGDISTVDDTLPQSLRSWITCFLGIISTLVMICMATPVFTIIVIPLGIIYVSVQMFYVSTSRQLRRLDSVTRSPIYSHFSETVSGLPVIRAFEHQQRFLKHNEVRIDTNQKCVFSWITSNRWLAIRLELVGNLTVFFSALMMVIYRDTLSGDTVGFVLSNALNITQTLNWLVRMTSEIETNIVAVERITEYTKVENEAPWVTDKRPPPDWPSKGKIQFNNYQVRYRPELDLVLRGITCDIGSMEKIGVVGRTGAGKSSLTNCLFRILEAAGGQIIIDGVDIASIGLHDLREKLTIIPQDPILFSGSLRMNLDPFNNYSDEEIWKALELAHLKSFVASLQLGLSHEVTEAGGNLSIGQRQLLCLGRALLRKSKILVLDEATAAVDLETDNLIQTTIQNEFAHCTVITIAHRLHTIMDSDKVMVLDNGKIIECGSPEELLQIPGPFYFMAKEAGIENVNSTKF

By pIC50 is commonly meant −log10 of the IC50, conventionally taken in molar units. In general, AUC refers to concentration integrated over time. In the case of `CC(C)OC(=O)C(C)(C)Oc1ccc(C(=O)c2ccc(Cl)cc2)cc1` [FENOFIBRATE], the pIC50 in data set [1], in data set [3] and in data set [4] was less than 3.88 in each case. Besides, in [2], the concentration at 24 h stood at 14.9 µM. The AUC at 24 h in the data set “clinical” was 357 µM·h.

Take `CC#C[C@]1(O)CC[C@H]2[C@@H]3CCC4=CC(=O)CCC4=C3[C@@H](c3ccc(N(C)C)cc3)C[C@@]21C` [MIFEPRISTONE]: the concentration at 24 h in data set [5] worked out at 7.56 µM. For the same compound, the pIC50 in data set [1] is less than 3.88; in data set [3], less than 3.88; at Bile salt export pump it was 5.69; in data set [4], less than 3.88. Further, in data set [6], the Ratio is given as 3.743. The compound further registered an AUC at 24 h in [7] of 181 µM·h.

Regarding `CC(=O)O[C@H]1C(=O)[C@@]2(C)[C@H]([C@H](OC(=O)c3ccccc3)[C@]3(O)C[C@H](OC(=O)[C@H](O)[C@@H](NC(=O)c4ccccc4)c4ccccc4)C(C)=C1C3(C)C)[C@]1(OC(C)=O)CO[C@@H]1C[C@@H]2O` [PACLITAXEL], the pIC50 in data set [1], in [3] and in [4] was less than 3.88 throughout. Also, the Css with Homo sapiens stood at 14.759 µM. Further, the AUC at 1 h in [8] was determined as 14.8 µM·h.

On to `O=C(O)c1ccc(-n2nc(-c3ccccc3O)nc2-c2ccccc2O)cc1` [DEFERASIROX], for which the pIC50 was less than 3.88 in data set [1], 4.44 in [3], 4.23 at Bile salt export pump and less than 3.88 in [4]. Further, the concentration at 24 h in data set [9] turned out to be 138 µM. This compound showed an AUC at 24 h in [10] of 3310 µM·h. In addition, the Ratio in data set [11] was found to be 2.363; in [12], 3.781.

In the case of `CN(C)C(=O)CCSC(SCCC(=O)O)c1cccc(/C=C/c2ccc3ccc(Cl)cc3n2)c1` (configuration not stated) [MK-571], the pIC50 was less than 3.88 in data set [1] and 5.03 in [4]. Also, in [13], the concentration at 24 h worked out at 18.6 µM. Moreover, the AUC at 24 h in data set [14] was found to be 447 µM·h.

In the case of `Cc1ccc(C(=O)c2cc(O)c(O)c([N+](=O)[O-])c2)cc1` [TOLCAPONE], the values for the Ratio in data set [15], in data set [18] and in [19] were 0.263, 1.338 and 0.611, respectively. The figures for the pIC50 (in data set [3]; on Bile salt export pump; in data set [4]) were 4.78, 4.44 and 4.07, respectively. Also, the AUC at 8 h in [16] came out at 179 µM·h. Also, the concentration at 8 h in data set [17] was found to be 22.3 µM.
